Legend:
[1] = test system: mPGES-1-dependent PGE2 production in human blood; experiment: Whole blood assay (LPS-stimulated human blood, PGE2 production); type: cell-based; conditions: 0.1 μg/ml LPS, 16 hours, 37° C., PGE2 by HTRF, read-out: hWBA
Source text: The whole blood assay [described by Patrignani, P. et al, Journal of Pharmacology and Experimental Therapeutics, 1994, vol. 271, pp 1705-1712] was used as the whole cell assay for testing the compounds. Whole blood provides a protein and cell rich environment for the study of biochemical efficacy of anti-inflammatory compounds, such as prostaglandin synthase inhibitors. To study the inhibitory activities of these compounds, human blood was stimulated with lipopolysaccharide (LPS) for typically 16 hours to induce mPGES-1 expression, after which the concentration of produced PGE2 was measured by competitive-immuno assay (homogeneous time-resolved fluorescence, HTRF) as read out for effectiveness against mPGES-1-dependent PGE2 production.
Human blood collected from human volunteers in heparinized tubes was incubated with 100 μM acetyl salicylic acid, in order to inhibit the constitutively expressed cyclooxygenase (COX)-1/COX-2 enzymes, and then stimulated with 0.1 μg/ml LPS to induce the expression of enzymes along the COX-2 pathway, e.g. COX-2 and mPGES-1. 100 μL of this blood was added to the wells of a 384-well plate containing 1 μL DMSO solutions of compounds typically in the final concentration range 316 μM to 0.01 μM. Naproxen was used as reference compound. The mix was incubated at 37° C. for 16 hours. Plasma was harvested by centrifugation and stored at −70° C. until further analysis of PGE2 levels. For the calculations, the 0%-activity value was represented by blood treated with acetyl salicylic acid, LPS and the reference compound (1 mM Naproxen). The 100%-activity value was represented by blood treated with aspirin, LPS and DMSO. [Reference: Patrignani, P. et al, Journal of Pharmacology and Experimental Therapeutics, 1994, vol. 271, pp 1705-1712]. The PGE2 formed was quantified, after dilution in a weak potassium phosphate buffer (50 mM, pH 6.8) containing 0.2% BSA (w/v), by use of a commercial HTRF based kit (catalogue #62PG2PEC or #62P2APEC from Cisbio International). IC50 values were then determined using standard procedures.

[2] = molecular target: T1, human mPGES-1 (Homo sapiens, UniProt O14684); experiment: Microsomal prostaglandin E synthase biochemical assay; conditions: microsomes containing human mPGES-1, PGH2 10.8 μM, GSH 2.5 mM, pH 6.8; average of at least n=2
T1 construct: host or cells: microsomes
T1 sequence (O14684 1-152): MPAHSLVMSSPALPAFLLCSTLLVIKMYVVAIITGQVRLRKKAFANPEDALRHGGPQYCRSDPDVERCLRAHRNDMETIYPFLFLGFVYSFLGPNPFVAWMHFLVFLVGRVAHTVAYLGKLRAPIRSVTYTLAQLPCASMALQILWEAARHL
Procedure: Compounds were tested as inhibitors of microsomal prostaglandin E synthase activity in microsomal prostaglandin E synthase assays and whole cell assays. These assays measure prostaglandin E2 (PGE2) synthesis, which is taken as a measure of prostaglandin E synthase activity. Microsomal prostaglandin E synthase biochemical assays used microsomal prostaglandin E synthase-1 in microsomal preparations. The source of the microsomes can be for example interleukin-1β-stimulated human A549 cells (which express human mPGES-1) or Sf9 cells transfected with plasmids encoding human mPGES-1 cDNA.
A solution of test compound was added to a diluted microsome preparation containing human mPGES-1 and pre-incubated for 15 minutes in potassium phosphate buffer pH 6.8 with cofactor glutathione (GSH). Corresponding solutions without test compound were used as positive controls, and corresponding solutions without test compound and without microsomes were used as negative controls. The enzymatic reaction was then started by addition of the substrate PGH2 in an organic solution (dry acetonitrile).
The typical reaction conditions of the enzymatic reaction were thus: Test compound: ranging from 60 μM to 0.002 μM, or zero in positive and negative controls; potassium phosphate buffer pH 6.8: 50 mM; GSH: 2.5 mM; mPGES-1-containing microsomes: 2 μg/mL (sample and positive controls) or 0 μg/mL (negative control); PGH2: 10.8 μM; Acetonitrile: 7.7% (v/v); DMSO: 0.6% (v/v). The reaction was stopped after one minute by adding an acidic solution (pH 1.9) of ferric chloride and citrate (final concentrations 7 mM and 47 mM respectively), by which the PGH2 was sequestered (the PGH2 is reduced to mainly 12-hydroxy heptadecatrineoic acid (12-HHT) which is not detected by the subsequent PGE2 detection step). The resulting solution was then pH neutralized by addition of potassium phosphate buffer, prior to diluting an aliquot of the resulting solution in a weak potassium phosphate buffer (50 mM, pH 6.8) containing 0.2% BSA (w/v). [Adapted from Jacobsson et al., Proc. Natl. Acad. Sci. USA, 1999, vol. 96, pp. 7220-7225] The PGE2 formed was quantified by use of a commercial HTRF based kit (catalogue #62PG2PEC or #62P2APEC from Cisbio International). 100% activity was defined as the PGE2 production in positive controls subtracted by the PGE2 production in the negative controls. IC50 values were then determined using standard procedures.
The potency is expressed as IC50 and the value indicated is an average of at least n=2.

SMILES	IC50 [1] [nM]	IC50 [2] [nM]
NS(=O)(=O)c1ccccc1NS(=O)(=O)CCc1ccc(Cl)cc1OCCc1ccccc1 [Example 1, 2-(2-(4-chloro-2-phenethoxyphenyl)ethylsulfonamido)benzenesulfonamide]	50.8	6.96
COc1ccccc1CCOc1cc(Cl)ccc1CCS(=O)(=O)Nc1ccccc1S(N)(=O)=O [Example 2, 2-(2-(4-chloro-2-(2-methoxyphenethoxy)phenyl)ethylsulfonamido)benzenesulfonamide]	3.4	3.7
COc1cccc(CCOc2cc(Cl)ccc2CCS(=O)(=O)Nc2ccccc2S(N)(=O)=O)c1 [Example 3, 2-(2-(4-chloro-2-(3-methoxyphenethoxy)phenyl)ethylsulfonamido)benzenesulfonamide]	90	6.4
COc1ccc(CCOc2cc(Cl)ccc2CCS(=O)(=O)Nc2ccccc2S(N)(=O)=O)cc1 [Example 4, 2-(2-(4-chloro-2-(4-methoxyphenethoxy)phenyl)ethylsulfonamido)benzenesulfonamide]	70.3	26.4
N#Cc1ccccc1CCOc1cc(Cl)ccc1CCS(=O)(=O)Nc1ccccc1S(N)(=O)=O [Example 5, 2-(2-(4-chloro-2-(2-cyanophenethoxy)phenyl)ethylsulfonamido)benzenesulfonamide]	10.4	4.1
N#Cc1cccc(CCOc2cc(Cl)ccc2CCS(=O)(=O)Nc2ccccc2S(N)(=O)=O)c1 [Example 6, 2-(2-(4-chloro-2-(3-cyanophenethoxy)phenyl)ethylsulfonamido)benzenesulfonamide]	77.4	13.6
N#Cc1ccc(CCOc2cc(Cl)ccc2CCS(=O)(=O)Nc2ccccc2S(N)(=O)=O)cc1 [Example 7, 2-(2-(4-chloro-2-(4-cyanophenethoxy)phenyl)ethylsulfonamido)benzenesulfonamide]	76.5	19.9
Cn1ccc2c(CCOc3cc(Cl)ccc3CCS(=O)(=O)Nc3ccccc3S(N)(=O)=O)cccc21 [Example 8, 2-(2-(4-chloro-2-(2-(1-methyl-1H-indol-4-yl)ethoxy)phenyl)ethylsulfonamido)benzenesulfonamide]	33.6	7.3
NS(=O)(=O)c1ccccc1NS(=O)(=O)CCc1ccc(Cl)cc1OCCc1cccc2c1CC(=O)N2 [Example 9, 2-(2-(4-chloro-2-(2-(2-oxoindolin-4-yl)ethoxy)phenyl)ethylsulfonamido)benzenesulfonamide]	84.3	11.9
NS(=O)(=O)c1cc(CO)ccc1NS(=O)(=O)CCc1ccc(Cl)cc1OCCc1ccccc1 [Example 10, 2-(2-(4-chloro-2-phenethoxyphenyl)ethylsulfonamido)-5-(hydroxymethyl)-benzenesulfonamide]	10.6	7.97

From US10227296B2, “Bis(sulfonamide) derivatives and their use as mPGES inhibitors” (Acturum Real Estate AB, priority 2014, dated 2019)
